Patent publication US20080249178A1, “MAGNESIUM COMPOSITIONS AND USES THEREOF FOR INCREASING LIFESPAN” (priority 2007, published 2008)

Legend:
[1] = Magnesium absorption rate in rats (metabolic cages, urine and feces magnesium by ICP-AES); details: higher dosage compositions; magnesium chloride in water, magnesium gluconate in skim milk or water comprising 5 weight percent lactose
Method: Fifty 3-month old, male Sprague Dawley (SD) rats were divided into five groups of ten rats. Rats of this age and older are considered adult. Each of the rats was placed in a separate metabolic cage equipped with urine- and feces-collecting wells. All of the rats were maintained in a temperature-controlled room (22° C. to 25° C.) with a dark period from 08:00 pm to 08:00 am daily. From day 1 through day 3, each rat was fed daily 15 g of magnesium-free food and de-ionized water. […] The medium was skim milk for Composition 1 and Group 1, milk prepared from powdered milk, by diluting the powdered milk with water to obtain a composition like that of skim milk, for Composition 2 and Group 2, 1% milk cream in water for Composition 3 and Group 3, water comprising 5 weight percent lactose for Composition 4 and Group 4, and water for the Control Composition and Control Group. […]
From day 4 through day 10, urine from each rat was collected daily. The collected urine from each rat was then pooled together and the total volume of the pooled urine from each rat was recorded. The pooled urine from each rat, in an amount of […], was analyzed for magnesium content using an inductively coupled plasma-atomic emission spectrometer (ICP-AES). […] The pooled feces from each rat, in an amount of 0.5 g, were analyzed for magnesium content using an ICP-AES. […]

[2] = test system: Sprague Dawley (SD) rats; details: aging rats, 6 mg/kg MgCl2
Method: Twenty 2-month old, male Sprague Dawley (SD) rats were housed in a temperature-controlled room (22° C. to 25° C.) with a dark period from 08:00 pm to 08:00 am daily. […] Over 7 days before the training and trial period began, each rat was handled and habituated to the maze and to Kellogg's Froot Loop cereal.
Each rat underwent a test of one trial, followed by an interval of 10-minutes, followed by another trial, and so on, for a total of 6 trials in one day. In each trial, each rat went through a sample run in the maze, followed by an interval of 15 seconds, followed by a choice run in the maze. In the sample run, the subject rat was forced to go to the left or to the right by the presence of a block, according to a pseudorandom sequence (with an equal number of left turns and right turns, and no more than two consecutive turns in the same direction). As a reward, Froot Loop cereal was available in the food well at the end of the run, regardless of the direction that was taken by virtue of the block. In the choice run, the block that had been present in the preceding sample run was removed, and the rat was allowed to choose to go to the left or to the right. As a reward, Froot Loop cereal was available in the food well at the end of the run, only when the rat had made a “correct choice” by choosing the direction opposite that taken in the preceding sample run. […]
On the first day (designated day 0) of the feeding of the two groups, as just described, each rat underwent a preliminary test of one trial, followed by an interval of 10 minutes, followed by another trial, and so on, for a total of 4 trials in one day. […] In this preliminary test, the choice accuracy level, or ratio of correct choices made, co, to the number of number of trials in the test, no, was determined for each rat. […]
Three groups of animals (young, aging, and magnesium-treated aging rats) were used. […] Spatial working memory was assessed using a T-maze non-matching-to-place task. […] Spatial working memory was first assessed on an elevated T-maze. […]

[3] = test system: Sprague-Dawley rats; experiment: Novel object recognition test in rats; assay type: in vivo
Method: In this example, the effect of magnesium supplementation on recognition memory was tested. Three groups of rats were used in these experiments: 1) young rats (three months old); aging rats (12-14 months old), and; 3) magnesium-treated aging rats (12-14 months old, diet supplemented with 6 mg/kg MgCl2 from 8 months of age). We used experimentally naive, female, Sprague-Dawley young […], aging (12-14 month old) and […] rats (Charles River) at the beginning of the behavior experiments. They were housed two per cage with continuous access to food and water under a 12:12 light-dark cycle, with light onset at 8:00 a.m. […] All experiments involving animals were approved by the Massachusetts Institute of Technology's and Tsinghua University Committees on Animal Care.
The three groups of rats were tested for recognition memory using an object recognition test with a single exposure to the object during training. The task is based on the natural tendency of rodents to explore new objects and tests the animals' memory capacity for distinguishing novel versus familiar objects.
Briefly, the rats were first individually habituated to the personnel and then to open-field arena during 2 weeks. […] The retention intervals were 10 min and 24 hours. Objects were cleaned thoroughly between trials with 20% ethanol solution to ensure the absence of olfactory cues. The particular objects for a given trial were randomly determined, but each object was used for only one trial per rat. Memory of the familiar object is associated with increased exploration of the new object and an exploration index (% correct) is calculated as new object inspection time/30.
In this example, the effect of magnesium supplementation on memory consolidation was studied. […]
Briefly, the rats were first individually habituated to the personnel and then to open-field arena during 2 weeks. […] The particular objects for a given trial were randomly determined, but each object was used for only one trial per rat. […]

[4] = diabetic patients, nearly 1 g of magnesium daily for 1 month; cited from earlier work
[5] = test system: young (9-month old) and aged (25-month old) rats; details: food containing 2% magnesium oxide for 8 days, cited from earlier work
[6] = test system: mice that were genetically altered to present symptoms of Alzheimer's disease (AD); experiment: Modified Morris water maze in AD mice; assay type: in vivo; details: AD mice aged 13 months
Method: Another group, the control group, of 10 mice that were genetically altered to present symptoms of AD were fed a Control Diet, a diet of normal solid food and water, for 30 days.
The pool used was a pool of water in a circular metal tank (150 cm in diameter and 50 cm in depth) having a water height of 30 cm and a water temperature that was maintained at ˜22° C. The pool was placed in a moderately lit area and surrounded by a black curtain. An acrylic platform (15 cm in diameter) was placed 2 cm below the surface of the water in the middle of one quadrant of the pool, equidistant from the center and the edge of the pool. Outside the pool, a cue was placed so as to be visible to a mouse in the maze, allowing a mouse to use it as a landmark for spatial orientation. The cue remained unchanged throughout the test period.
On the first day of the training and testing period, the water in the pool was transparent, such that the platform was visible. Each mouse was trained to swim towards the platform and to stand on the platform so as not to be submerged in the pool. […] The amount of time the mouse took to find the platform, referred to as “escape latency,” was recorded for each trial.
On the second day of the training and testing period, a small quantity of milk was added to the water in the pool, such that the pool was opaque and the platform was no longer visible. […]

[Cl-].[Cl-].[Mg+2] [MgCl2, magnesium chloride]
magnesium absorption rate at relatively high magnesium dosage [1]: less desirable | spatial working memory performance with increased delay ([2]; 2 and 5 min delays (p<0.05)): significantly enhanced the performance of the aging rats | percentage of correct choices during training ([2]; 15 sec delay (p<0.05)): performed significantly better from their first trials | asymptotic choice accuracy level ([2]; after 8 days of training): 94% | novel object exploration preference ([3]; aging rats (12-14 months old), 6 mg/kg MgCl2 from 8 months of age, single exposure, 10 minute retention interval (P<0.0001)): preferentially explored the novel object to the same extent as young rats | ability to distinguish novel versus familiar objects ([3]; aging rats, 6 mg/kg MgCl2, single exposure, after 24 hours): lose there ability to distinguish novel versus familiar objects | preference for the novel object ([3]; aging rats, 6 mg/kg MgCl2, two training sessions, 24-hour retention interval): retained a high level of preference

[O]=[Mg] [magnesium oxide]
increase of serum magnesium level [4]: about 10% | metabolic control [4]: only minor improvement in metabolic control | side-effect [5]: diarrhea and weight loss | cognitive function ([5]; gain transient): some sign of improvement of cognitive function

CC12CC3CC(C)(C1)CC(N)(C3)C2 [memantine]
reduction of the effects of AD on learning capacity, compared with aricept [6]: better at reducing the effects of AD on learning capacity than aricept
